{"source": "patent US10874103B2", "about": "“Antibacterial composition comprising an acetal or a long-chain alkyl hexitane ether” (TEREOS STARCH & SWEETENERS BELGIUM, priority 2014, dated 2020)", "key": {"[1]": {"test": "Critical micelle concentration (surfactant properties, Example 6)", "format": "physicochemical", "from_the_text": "The physical, chemical and antimicrobial properties for the best products synthesized have been tested. These analyses show the different surfactant profiles, and the minimum inhibitory concentrations (MIC) for each compound on Gram-positive bacteria. The best surfactant and antimicrobial results are compared in Table 3."}, "[2]": {"tested_on": "Staphylococcus Aureus strains", "test": "MIC microdilution on wider panel (Example 8), Staphylococcus strains", "format": "cell-based, S. aureus", "experimental": "(§1) The cultures studied, freshly isolated (after incubation on a blood agar at 37° C. for 18 h), are taken up in sterile water (10 mL) until a 0.5 McFarland (Mc) suspension i.e. at 1 to 2×10^8 CFU (bacteria)/cm^3 is obtained. The bacterial suspension was then diluted to obtain a final concentration of 1×10^6 CFU/cm^3.\nEach well contains an identical quantity of Mueller-Hinton medium (a rich medium for bacterial culture) and bacteria with final 0.5×10^6 CFU/cm^3.\nThe test compounds of interest are solubilized in ethanol or DMSO at 25 mg/mL before being diluted to different concentrations two by two. On the multiwell plate, a first series has been planned comprising the culture medium without the test compound of interest. It corresponds to the growth control (control well). These controls serve as reference for comparing bacterial growth with that of the subsequent wells comprising different concentrations of the test compound of interest. The second series of wells comprises the mother solution for the test compound of interest for a concentration in the wells of 256 mg (7 mM). Each series of wells was diluted two by two until the last series for a final concentration of 0.25 mg/L (0.0007 mM). Each concentration is duplicated in the same plate. The plate is incubated for 18 h at 37° C. […] If there is antibacterial activity, the bacterial growth is inhibited, which means that no turbidity or bacterial residue is present.\nThe minimum inhibitory concentrations (MIC) are tested on Gram-positive bacterial strains according to the recommendations of the “Clinical Laboratory Standards Institute” (Clinical-Laboratory-Standards-Institute, 6th ed. Approved standard M100-S17. CLSI, Wayne, Pa., 2007). The clinical strains have been isolated in the Hospice de Lyon.\nStaphylococci S. aureus: ATCC® 29213™, ATCC 25923,\nStaphylococci strains Daptomycin-resistant S. aureus (ST 2015-0188), (ST 2014 1288).\nas §1, with “10^8” for “1 to 2×10^8”, “10^6” for “1×10^6”"}}, "note": "Read-outs that look alike come from different tables or passages of the source."}
{"substance": "Dodecyl-1,4-d-sorbitan [Example 2e]", "values": [{"measurement": "CMC (critical micelle concentration)", "setting": "[1]", "result": 0.091, "unit": "mM"}, {"measurement": "CMC (critical micelle concentration)", "setting": "[1]; listed as Sorbitan dodecyl ether", "result": 0.09, "unit": "mM"}, {"measurement": "Minimum inhibitory concentration (MIC) ST 2014 1288", "setting": "[2]; Daptomycin-resistant S. aureus ST 2014 1288", "result": 64, "unit": "µg/mL"}, {"measurement": "Minimum inhibitory concentration (MIC) ST 2015 0188", "setting": "[2]; Daptomycin-resistant S. aureus ST 2015-0188", "result": 64, "unit": "µg/mL"}, {"measurement": "Minimum inhibitory concentration (MIC) HT 2002-0417", "setting": "[2]; Methicillin-resistant S. aureus HT 2002-0417", "result": 32, "unit": "µg/mL"}, {"measurement": "Minimum inhibitory concentration (MIC) HT 2004-0012", "setting": "[2]; Methicillin-resistant S. aureus HT 2004-0012", "result": 32, "unit": "µg/mL"}, {"measurement": "Minimum inhibitory concentration (MIC) HT 2006-1004", "setting": "[2]; Methicillin-resistant S. aureus HT 2006-1004", "result": 32, "unit": "µg/mL"}, {"measurement": "Minimum inhibitory concentration (MIC) LY 199-0053", "setting": "[2]; Methicillin-resistant S. aureus LY 199-0053", "result": 32, "unit": "µg/mL"}, {"measurement": "Minimum inhibitory concentration (MIC) USA 300", "setting": "[2]; Methicillin-resistant S. aureus Lac-Deleo USA 300", "result": 32, "unit": "µg/mL"}, {"measurement": "Minimum inhibitory concentration (MIC) MU 3", "setting": "[2]; Methicillin-resistant S. aureus MU 3", "result": 64, "unit": "µg/mL"}, {"measurement": "Minimum inhibitory concentration (MIC) ATCC 25923", "setting": "[2]; S. aureus ATCC 25923", "result": 32, "unit": "µg/mL"}, {"measurement": "Minimum inhibitory concentration (MIC) ATCC 29213", "setting": "[2]; S. aureus ATCC 29213", "result": 32, "unit": "µg/mL"}]}
